ChEMBL document CHEMBL2169841, “A simple solid phase, peptide-based fluorescent assay for the efficient and universal screening of HRV 3C protease inhibitors” (Bioorg Med Chem Lett, 2012)
In brackets after ≈: the same amount, converted by molar mass.

Experiments:
Design in all cases: species or system rhinovirus B14
[1] = Inhibition of human rhinovirus 14 recombinant N-terminal GST-tagged protease 3c expressed in Escherichia coli DH5alpha using LEVLFQGPSK(Fluoro)G as substrate after 1 hr by discontinuous heterogeneous fluorometric assay
[2] = Inhibition of human rhinovirus 14 protease 3c by HPLC analysis
[3] = Inhibition of human rhinovirus 14 recombinant N-terminal GST-tagged protease 3c expressed in Escherichia coli DH5alpha using Staphylococcus superantigen like protein 7-thioredoxin fusion protein as substrate after 1 hr by SDS-PAGE analysis

SMILES | IC50 [1] | IC50 [2] | IC50 [3]
C=CCC1=C(Br)C(=O)c2ccccc2C1=O | 8.8 µM |  | 
CC(=O)CC1=C(Br)C(=O)c2ccccc2C1=O | 62.7 µM |  | 
CC(O)CC1=C(Br)C(=O)c2ccccc2C1=O (configuration not stated) | 92.5 µM |  | 
C[C@H]1CC2=C(C(=O)c3c(O)cc(O)cc3C2=O)[C@H](O)O1 | 53 µM | 13 µg/mL (≈ 47.1 µM) | 14.1 µg/mL
O=C1C=C(Br)C(=O)c2ccccc21 [2-Bromo-1,4-naphthoquinone] | 4.2 µM |  | 
